Columns and labels:
[1] = Molar enthalpy of transition or fusion; conditions: Crystal; DSC
[2] = for viscosity / mass density: 101.33 kPa; for mass density: Vibrating tube method; for Normal melting temperature: Crystal, DTA; for Glass transition temperature: DSC

CC(C)CCCCn1cc[n+](C)c1.O=S(=O)([N-]S(=O)(=O)C(F)(F)F)C(F)(F)F
Conditions | Glass transition temperature [°C] | Molar enthalpy of transition or fusion [kcal/mol] | Normal melting temperature [°C]
[1] | – | 0.12 | –
[2] | -81.3 | – | 11.2

viscosity [mPa·s], [2]
Conditions | 278.15 K | 288.15 K | 293.15 K | 298.15 K | 303.15 K | 313.15 K | 323.15 K | 333.15 K
Concentric cylinders viscometry, Liquid | – | 164 | 124 | 96 | 76 | 50 | 35 | 25
Metastable liquid, Concentric cylinders viscometry | 306 | – | – | – | – | – | – | –

[2], Liquid
Conditions | mass density [kg/m3]
283.15 K | 1357.5
288.15 K | 1353
293.15 K | 1348.7
298.15 K | 1344.2
303.15 K | 1339.8
308.15 K | 1335.2
313.15 K | 1330.6

CC(C)CCCn1cc[n+](C)c1.O=S(=O)([N-]S(=O)(=O)C(F)(F)F)C(F)(F)F
Conditions | Glass transition temperature [°C] | Molar enthalpy of transition or fusion [kcal/mol] | Normal melting temperature [°C]
[1] | – | 0.0239 | –
[2] | -81 | – | 3.2

[2], Liquid, Concentric cylinders viscometry
Conditions | viscosity [mPa·s]
278.15 K | 237
288.15 K | 137
293.15 K | 107
298.15 K | 85
303.15 K | 69
313.15 K | 45
323.15 K | 32
333.15 K | 23

[2], Liquid
Conditions | mass density [kg/m3]
283.15 K | 1385.9
288.15 K | 1381.3
293.15 K | 1377
298.15 K | 1372.4
303.15 K | 1367.9
308.15 K | 1363.3
313.15 K | 1358.5

CCCCCn1cc[n+](C)c1.O=S(=O)([N-]S(=O)(=O)C(F)(F)F)C(F)(F)F
[2], Liquid
Conditions | mass density [kg/m3]
283.15 K | 1417.5
288.15 K | 1412.9
293.15 K | 1408.4
298.15 K | 1403.6
303.15 K | 1399
308.15 K | 1393.9
313.15 K | 1389.3

CCCCCCCn1cc[n+](C)c1.O=S(=O)([N-]S(=O)(=O)C(F)(F)F)C(F)(F)F
Conditions | Glass transition temperature [°C] | Molar enthalpy of transition or fusion [kcal/mol] | Normal melting temperature [°C]
[1] | – | 0.0956 | –
[2] | -85.4 | – | -0.9

[2], Liquid, Concentric cylinders viscometry
Conditions | viscosity [mPa·s]
278.2 K | 234
288.15 K | 132
298.15 K | 82
308.15 K | 54
318.15 K | 37
328.15 K | 27
338.15 K | 20

[2], Liquid
Conditions | mass density [kg/m3]
283.15 K | 1358.4
288.15 K | 1354.1
293.15 K | 1349.8
298.15 K | 1345.4
303.15 K | 1341
308.15 K | 1336.4
313.15 K | 1331.6

CC(C)CCn1cc[n+](C)c1.O=S(=O)([N-]S(=O)(=O)C(F)(F)F)C(F)(F)F
Conditions | Glass transition temperature [°C] | Molar enthalpy of transition or fusion [kcal/mol] | Normal melting temperature [°C]
[1] | – | 0.0239 | –
[2] | -83.7 | – | -0.0

[2], Liquid, Concentric cylinders viscometry
Conditions | viscosity [mPa·s]
278.15 K | 195
288.15 K | 112
293.15 K | 86
298.15 K | 69
303.15 K | 56
313.15 K | 38
323.15 K | 27
333.15 K | 20

[2], Liquid
Conditions | mass density [kg/m3]
283.15 K | 1417.5
288.15 K | 1412.7
293.15 K | 1408.1
298.15 K | 1403.3
303.15 K | 1398.5
308.15 K | 1393.7
313.15 K | 1388.7

CC(C)[n+]1ccn(C)c1.O=S(=O)([N-]S(=O)(=O)C(F)(F)F)C(F)(F)F
Conditions | Glass transition temperature [°C] | Molar enthalpy of transition or fusion [kcal/mol] | Normal melting temperature [°C]
[1] | – | 5.71 | –
[2] | -83 | – | 9.0

[2], Liquid, Concentric cylinders viscometry
Conditions | viscosity [mPa·s]
278.15 K | 122
288.15 K | 75
293.15 K | 59
298.15 K | 48
303.15 K | 39
313.15 K | 28
323.15 K | 21
333.15 K | 16

[2], Liquid
Conditions | mass density [kg/m3]
283.15 K | 1492.2
288.15 K | 1487.2
293.15 K | 1482.5
298.15 K | 1477.6
303.15 K | 1472.8
308.15 K | 1467.8
313.15 K | 1462.6

CCCn1cc[n+](C)c1.O=S(=O)([N-]S(=O)(=O)C(F)(F)F)C(F)(F)F
[2], Liquid, Concentric cylinders viscometry
Conditions | viscosity [mPa·s]
278.2 K | 103
288.15 K | 64
298.15 K | 43
308.15 K | 30
318.15 K | 22
328.15 K | 17
338.15 K | 13

[2], Liquid
Conditions | mass density [kg/m3]
283.15 K | 1490.2
288.15 K | 1485.2
293.15 K | 1480.6
298.15 K | 1475.6
303.15 K | 1470.8
308.15 K | 1465.8
313.15 K | 1460.6

CC(C)Cn1cc[n+](C)c1.O=S(=O)([N-]S(=O)(=O)C(F)(F)F)C(F)(F)F
Conditions | Glass transition temperature [°C] | Molar enthalpy of transition or fusion [kcal/mol] | Normal melting temperature [°C]
[1] | – | 1.63 | –
[2] | -81.2 | – | -16.2

[2], Liquid
Conditions | mass density [kg/m3] | viscosity [mPa·s]
278.15 K | – | 244
283.15 K | 1450.3 | –
288.15 K | 1445.6 | 132
293.15 K | 1441.1 | 103
298.15 K | 1436.3 | 79
303.15 K | 1431.6 | 61
308.15 K | 1426.6 | –
313.15 K | 1421.9 | 40
323.15 K | – | 28
333.15 K | – | 20

CCCC[n+]1ccn(C)c1.O=S(=O)([N-]S(=O)(=O)C(F)(F)F)C(F)(F)F
Conditions | Glass transition temperature [°C] | Molar enthalpy of transition or fusion [kcal/mol] | Normal melting temperature [°C]
[1] | – | 5.76 | –
[2] | -88.9 | – | -4.6

[2], Liquid
Conditions | mass density [kg/m3]
283.15 K | 1451.2
288.15 K | 1446.5
293.15 K | 1441.9
298.15 K | 1436.9
303.15 K | 1432.1
308.15 K | 1427.1
313.15 K | 1422.6

CCCCCC[n+]1ccn(C)c1.O=S(=O)([N-]S(=O)(=O)C(F)(F)F)C(F)(F)F
Conditions | Glass transition temperature [°C] | Molar enthalpy of transition or fusion [kcal/mol] | Normal melting temperature [°C]
[1] | – | 1.65 | –
[2] | -85.7 | – | -11.2

[2], Liquid
Conditions | mass density [kg/m3]
283.15 K | 1386.1
288.15 K | 1381.5
293.15 K | 1377.2
298.15 K | 1372.7
303.15 K | 1368.3
308.15 K | 1363.6
313.15 K | 1358.8
